Experimental findings from US6579545B2, “Coated chewing gum products containing an antigas agent” (WM. Wrigley Jr. Company, priority 2000, dated 2003) are described below.

On the data set, the source says:
Analysis of a precipitated calcium carbonate having a median particle size of about 5 microns was done before and after being applied as a coating.

Turning to `O=C([O-])[O-].[Ca+2]` [precipitated calcium carbonate, calcium carbonate], the particle size (after preparing a suspension and applying it to a gum pellet for an antacid gum product) is given as 4.9 microns. Moreover, the median particle size (before coating) is 5.1 microns.
